Test results as given in patent publication US9540366B2, “Ring-fused heterocyclic compound” (Kyowa Hakko Kirin Co., Ltd., priority 2012, dated 2017).
Where two headings read alike, the source gives them in different places.

Target: T1, human Cav3.2 T-type Ca2+ channel (Homo sapiens, UniProt O95180)
T1 construct: expressed in transfected cells; host or cells: KJMGER8 cells (Namalwa cell-derived cell line)
Assay: Inhibitory effect for intracellular calcium response via Cav3.2 T-type Ca2+ channels (FLIPR Calcium 3 Assay Kit)
Assay type: cell-based

[1] = human Cav3.2-expressing KJMGER8 cells (Namalwa-derived), calcium response induced by 5 mmol/L CaCl2, 3 μmol/L mibefradil as reference, read-out: IC50 for the human Cav3.2 T-type Ca2+ current

T1 sequence (O95180 whole entry): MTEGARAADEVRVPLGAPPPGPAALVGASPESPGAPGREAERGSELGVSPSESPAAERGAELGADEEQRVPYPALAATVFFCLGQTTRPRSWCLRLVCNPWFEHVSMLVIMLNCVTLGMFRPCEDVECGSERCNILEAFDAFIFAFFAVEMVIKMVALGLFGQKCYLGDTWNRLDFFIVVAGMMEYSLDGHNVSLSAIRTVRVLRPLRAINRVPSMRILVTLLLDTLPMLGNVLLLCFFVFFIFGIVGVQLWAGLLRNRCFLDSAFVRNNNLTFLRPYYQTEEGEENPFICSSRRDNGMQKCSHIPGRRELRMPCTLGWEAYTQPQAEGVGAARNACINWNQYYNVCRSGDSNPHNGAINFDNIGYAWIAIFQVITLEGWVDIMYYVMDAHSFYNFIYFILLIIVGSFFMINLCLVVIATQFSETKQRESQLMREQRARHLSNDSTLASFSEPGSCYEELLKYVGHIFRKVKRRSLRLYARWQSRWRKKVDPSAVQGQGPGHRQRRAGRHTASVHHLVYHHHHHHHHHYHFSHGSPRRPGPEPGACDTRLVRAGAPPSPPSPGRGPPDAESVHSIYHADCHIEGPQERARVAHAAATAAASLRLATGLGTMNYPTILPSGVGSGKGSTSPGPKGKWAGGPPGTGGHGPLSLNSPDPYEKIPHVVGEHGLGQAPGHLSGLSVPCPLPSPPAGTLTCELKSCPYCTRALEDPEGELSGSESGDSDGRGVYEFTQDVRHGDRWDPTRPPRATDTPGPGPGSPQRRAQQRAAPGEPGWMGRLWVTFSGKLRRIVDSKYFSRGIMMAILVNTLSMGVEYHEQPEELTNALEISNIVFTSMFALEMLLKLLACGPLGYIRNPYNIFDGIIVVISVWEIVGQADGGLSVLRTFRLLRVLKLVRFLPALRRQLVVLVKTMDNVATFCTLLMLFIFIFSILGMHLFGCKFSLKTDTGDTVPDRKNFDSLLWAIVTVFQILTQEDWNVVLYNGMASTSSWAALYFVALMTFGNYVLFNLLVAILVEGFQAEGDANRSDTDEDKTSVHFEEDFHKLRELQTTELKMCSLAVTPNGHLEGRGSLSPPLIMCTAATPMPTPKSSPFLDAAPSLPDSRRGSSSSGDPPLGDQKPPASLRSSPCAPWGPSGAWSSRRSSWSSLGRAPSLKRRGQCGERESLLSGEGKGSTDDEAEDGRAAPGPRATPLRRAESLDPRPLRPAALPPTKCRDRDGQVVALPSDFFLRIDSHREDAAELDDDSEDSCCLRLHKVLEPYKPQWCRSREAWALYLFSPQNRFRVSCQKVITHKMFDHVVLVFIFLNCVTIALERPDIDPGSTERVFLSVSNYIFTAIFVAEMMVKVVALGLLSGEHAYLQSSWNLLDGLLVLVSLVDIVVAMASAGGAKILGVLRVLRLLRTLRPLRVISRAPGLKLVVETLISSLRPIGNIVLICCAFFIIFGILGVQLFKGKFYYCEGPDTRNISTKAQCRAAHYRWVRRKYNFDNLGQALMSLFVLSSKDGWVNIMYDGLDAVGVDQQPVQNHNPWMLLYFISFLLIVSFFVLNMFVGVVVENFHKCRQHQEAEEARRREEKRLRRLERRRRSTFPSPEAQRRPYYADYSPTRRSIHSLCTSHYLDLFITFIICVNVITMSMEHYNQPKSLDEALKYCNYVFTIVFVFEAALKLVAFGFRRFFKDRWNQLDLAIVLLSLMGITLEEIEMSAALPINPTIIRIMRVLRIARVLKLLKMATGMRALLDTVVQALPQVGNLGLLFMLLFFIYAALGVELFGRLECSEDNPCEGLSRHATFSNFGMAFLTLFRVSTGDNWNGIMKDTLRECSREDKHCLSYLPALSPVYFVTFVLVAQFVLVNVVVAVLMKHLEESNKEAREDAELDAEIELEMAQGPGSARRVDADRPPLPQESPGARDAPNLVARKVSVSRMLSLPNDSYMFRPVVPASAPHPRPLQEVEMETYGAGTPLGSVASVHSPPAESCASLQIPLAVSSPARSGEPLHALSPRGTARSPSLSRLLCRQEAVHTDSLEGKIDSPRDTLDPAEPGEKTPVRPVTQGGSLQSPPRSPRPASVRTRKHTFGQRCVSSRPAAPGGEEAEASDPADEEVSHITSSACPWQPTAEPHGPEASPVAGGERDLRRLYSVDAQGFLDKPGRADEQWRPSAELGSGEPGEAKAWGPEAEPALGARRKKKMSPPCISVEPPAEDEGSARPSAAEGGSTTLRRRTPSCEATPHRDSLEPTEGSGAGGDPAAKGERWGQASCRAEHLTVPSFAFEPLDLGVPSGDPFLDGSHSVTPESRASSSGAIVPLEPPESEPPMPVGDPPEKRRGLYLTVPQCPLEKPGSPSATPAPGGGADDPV

Row | SMILES | IC50 | IC50 [1]
1 | Cc1cc(C(=O)NOC2CCOCC2)cc2nc(C(F)(F)F)c(CC3CCC(F)(F)CC3)n12 [Compound 72, 3-[(4,4-Difluorocyclohexyl)methyl]-5-methyl-N-(tetrahydro-2H-pyran-4-yloxy)-2-(trifluoromethyl)imidazo[1,2-a]pyridine-7-carboxamide] | ≤ 100 nM | 
2 | Cc1cc(-c2nc3c([nH]2)CCCC3)cc2nc(C(F)(F)F)c(CC3CCC(F)(F)CC3)n12 [Compound 73, 2-{3-[(4,4-Difluorocyclohexyl)methyl]-5-methyl-2-(trifluoromethyl)imidazo[1,2-a]pyridin-7-yl}-4,5,6,7-tetrahydro-1H-benzo[d]imidazol] | ≤ 100 nM | 
3 | Cc1cc(C(=O)NC2CCCOCC2)cc2nc(C(F)(F)F)c(CC3CCC(F)(F)CC3)n12 (centres unmarked) [Compound 74, 3-[(4,4-Difluorocyclohexyl)methyl]-5-methyl-N-(oxepan-4-yl)-2-(trifluoromethyl)imidazo[1,2-a]pyridine-7-carboxamide] | ≤ 100 nM | 
4 | Cc1cc(C(=O)NC2(C3CCOCC3)CC2)cc2nc(C(F)(F)F)c(CC3CCC(F)(F)CC3)n12 [Compound 75, 3-[(4,4-Difluorocyclohexyl)methyl]-5-methyl-N-[1-(tetrahydro-2H-pyran-4-yl)cyclopropyl]-2-(trifluoromethyl)imidazo[1,2-a]pyridine-7-carboxamide] |  | ≤ 100 nM
5 | N#Cc1cc(C(=O)NC2CC2)cc2nc(C(F)(F)F)c(CC3CCC(F)(F)CC3)n12 [Compound 76, 5-Cyano-N-cyclopropyl-3-[(4,4-difluorocyclohexyl)methyl]-2-(trifluoromethyl)imidazo[1,2-a]pyridine-7-carboxamide] | ≤ 100 nM | 
6 | O=C(NCC1CC1)c1cc(Cl)n2c(CC3CCC(F)(F)CC3)c(C(F)(F)F)nc2c1 [Compound 77, 5-Chloro-N-(cyclopropylmethyl)-3-[(4,4-difluorocyclohexyl)methyl]-2-(trifluoromethyl)imidazo[1,2-a]pyridine-7-carboxamide] | ≤ 100 nM | 
7 | Cc1cc(CC(=O)NC2CCOCC2)cc2nc(C(F)(F)F)c(CC3CCC(F)(F)CC3)n12 [Compound 78, 2-{3-[(4,4-Difluorocyclohexyl)methyl]-5-methyl-2-(trifluoromethyl)imidazo[1,2-a]pyridin-7-yl}-N-(tetrahydro-2H-pyran-4-yl)acetamide] | ≤ 100 nM | 
8 | Cc1cc(C(=O)NC2CC(CO)(CO)C2)cc2nc(C(F)(F)F)c(CC3CCC(F)(F)CC3)n12 [Compound 80, N-[3,3-Bis(hydroxymethyl)cyclobutyl]-3-[(4,4-difluorocyclohexyl)methyl]-5-methyl-2-(trifluoromethyl)imidazo[1,2-a]pyridine-7-carboxamide] | ≤ 100 nM | 
9 | CC(C)(NC(=O)c1cc(Cl)n2c(CC3CCC(F)(F)CC3)c(C(F)(F)F)nc2c1)C1CCOCC1 [Compound 81, 5-Chloro-3-[(4,4-difluorocyclohexyl)methyl]-N-[2-(tetrahydro-2H-pyran-4-yl)propan-2-yl]-2-(trifluoromethyl)imidazo[1,2-a]pyridine-7-carboxamide] | ≤ 100 nM | 
10 | Cc1cc(C(O)C(O)C2CCOCC2)cc2nc(C(F)(F)F)c(CC3CCC(F)(F)CC3)n12 (centres unmarked) [Compound 82, 1-{3-[(4,4-Difluorocyclohexyl)methyl]-5-methyl-2-(trifluoromethyl)imidazo[1,2-a]pyridin-7-yl}-2-(tetrahydro-2H-pyran-4-yl)ethane-1,2-diol] | ≤ 100 nM | 
11 | Cc1cc(C(=O)C(O)C2CCOCC2)cc2nc(C(F)(F)F)c(CC3CCC(F)(F)CC3)n12 (centres unmarked) [Compound 83, 1-{3-[(4,4-Difluorocyclohexyl)methyl]-5-methyl-2-(trifluoromethyl)imidazo[1,2-a]pyridin-7-yl}-2-hydroxy-2-(tetrahydro-2H-pyran-4-yl)ethanone] |  | ≤ 100 nM
12 | Cc1cc(CC(=O)NOC2CCOCC2)cc2nc(C(F)(F)F)c(CC3CCC(F)(F)CC3)n12 [Compound 84, 2-{3-[(4,4-Difluorocyclohexyl)methyl]-5-methyl-2-(trifluoromethyl)imidazo[1,2-a]pyridin-7-yl}-N-(tetrahydro-2H-pyran-4-yloxy)acetamide] | ≤ 100 nM | 
13 | Cc1cc(CC(=O)Nc2ccccc2N)cc2nc(C(F)(F)F)c(CC3CCC(F)(F)CC3)n12 [Compound 85, N-(2-Aminophenyl)-2-{3-[(4,4-difluorocyclohexyl)methyl]-5-methyl-2-(trifluoromethyl)imidazo[1,2-a]pyridin-7-yl}acetamide] |  | ≤ 100 nM
14 | O=C(NCC1(O)CCOCC1)c1cc(Cl)n2c(CC3CCC(F)(F)CC3)c(C(F)(F)F)nc2c1 [Compound 86, 5-Chloro-3-[(4,4-difluorocyclohexyl)methyl]-N-[(4-hydroxytetrahydro-2H-pyran-4-yl)methyl]-2-(trifluoromethyl)imidazo[1,2-a]pyridine-7-carboxamide] | ≤ 100 nM | 
15 | Cc1cc(Cc2nc3ccccc3[nH]2)cc2nc(C(F)(F)F)c(CC3CCC(F)(F)CC3)n12 [Compound 87, 2-({3-[(4,4-Difluorocyclohexyl)methyl]-5-methyl-2-(trifluoromethyl)imidazo[1,2-a]pyridin-7-yl}methyl)-1H-benzo[d]imidazol] |  | ≤ 100 nM
16 | Cc1cc(C(=O)NC2CC3(COC3)C2)cc2nc(C(F)(F)F)c(CC3CCC(F)(F)CC3)n12 [Compound 88, 3-[(4,4-Difluorocyclohexyl)methyl]-5-methyl-N-(2-oxaspiro[3.3]heptan-6-yl)-2-(trifluoromethyl)imidazo[1,2-a]pyridine-7-carboxamide] | ≤ 100 nM | 

Row | SMILES | IC50 | IC50 [1]
17 | Cc1cc(C(C)C(=O)NC2CCOCC2)cc2nc(C(F)(F)F)c(CC3CCC(F)(F)CC3)n12 (centres unmarked) [Compound 89, 2-{3-[(4,4-Difluorocyclohexyl)methyl]-5-methyl-2-(trifluoromethyl)imidazo[1,2-a]pyridin-7-yl}-N-(tetrahydro-2H-pyran-4-yl)propanamide] | ≤ 100 nM | 
18 | Cc1cc(C(O)C(O)c2ccccc2)cc2nc(C(F)(F)F)c(CC3CCC(F)(F)CC3)n12 (centres unmarked) [Compound 94, 1-{3-[(4,4-Difluorocyclohexyl)methyl]-5-methyl-2-(trifluoromethyl)imidazo[1,2-a]pyridin-7-yl}-2-phenylethane-1,2-diol] | ≤ 100 nM | 
19 | O=C(NC1CC(CO)(CO)C1)c1cc(Cl)n2c(CC3CCC(F)(F)CC3)c(C(F)(F)F)nc2c1 [Compound 95, N-[3,3-Bis(hydroxymethyl)cyclobutyl]-5-chloro-3-[(4,4-difluorocyclohexyl)methyl]-2-(trifluoromethyl)imidazo[1,2-a]pyridine-7-carboxamide] | ≤ 100 nM | 
20 | O=C(NCc1ccncc1)c1cc(Cl)n2c(CC3CCC(F)(F)CC3)c(C(F)(F)F)nc2c1 [Compound 97] | ≤ 100 nM | 
21 | O=C(NCc1ccccc1)c1cc(Cl)n2c(CC3CCC(F)(F)CC3)c(C(F)(F)F)nc2c1 [Compound 98, N-Benzyl-5-chloro-3-[(4,4-difluorocyclohexyl)methyl]-2-(trifluoromethyl)imidazo[1,2-a]pyridine-7-carboxamide] | ≤ 100 nM | 
22 | O=C(NCCN1CCCCC1)c1cc(Cl)n2c(CC3CCC(F)(F)CC3)c(C(F)(F)F)nc2c1 [Compound 99, 5-Chloro-3-[(4,4-difluorocyclohexyl)methyl]-N-[2-(piperidin-1-yl)ethyl]-2-(trifluoromethyl)imidazo[1,2-a]pyridine-7-carboxamide] | ≤ 100 nM | 
23 | O=C(NCCCn1ccnc1)c1cc(Cl)n2c(CC3CCC(F)(F)CC3)c(C(F)(F)F)nc2c1 [Compound 100, N-[3-(1H-Imidazol-1-yl)propyl]-5-chloro-3-[(4,4-difluorocyclohexyl)methyl]-2-(trifluoromethyl)imidazo[1,2-a]pyridine-7-carboxamide] | ≤ 100 nM | 
24 | O=C(NCc1cccc(O)c1)c1cc(Cl)n2c(CC3CCC(F)(F)CC3)c(C(F)(F)F)nc2c1 [Compound 103, 5-Chloro-3-[(4,4-difluorocyclohexyl)methyl]-N-(3-hydroxybenzyl)-2-(trifluoromethyl)imidazo[1,2-a]pyridine-7-carboxamide] |  | ≤ 100 nM
25 | O=C(NCCc1c[nH]cn1)c1cc(Cl)n2c(CC3CCC(F)(F)CC3)c(C(F)(F)F)nc2c1 [Compound 104] | ≤ 100 nM | 
26 | O=C(NCc1ccccn1)c1cc(Cl)n2c(CC3CCC(F)(F)CC3)c(C(F)(F)F)nc2c1 [Compound 106] | ≤ 100 nM | 
27 | O=C(NCCN(CCO)CCO)c1cc(Cl)n2c(CC3CCC(F)(F)CC3)c(C(F)(F)F)nc2c1 [Compound 109, N-{2-[Bis(2-hydroxyethyl)amino]ethyl}-5-chloro-3-[(4,4-difluorocyclohexyl)methyl]-2-(trifluoromethyl)imidazo[1,2-a]pyridine-7-carboxamide] |  | ≤ 100 nM
28 | CCOC(=O)CNC(=O)c1cc(Cl)n2c(CC3CCC(F)(F)CC3)c(C(F)(F)F)nc2c1 [Compound 110, Ethyl 2-{5-chloro-3-[(4,4-difluorocyclohexyl)methyl]-2-(trifluoromethyl)imidazo[1,2-a]pyridine-7-carboxamide}acetate] | ≤ 100 nM | 
29 | Cc1cc(C(O)c2nc3ccccc3[nH]2)cc2nc(C(F)(F)F)c(CC3CCC(F)(F)CC3)n12 (centres unmarked) [Compound 112, (1H-Benzo[d]imidazol-2-yl){3-[(4,4-difluorocyclohexyl)methyl]-5-methyl-2-(trifluoromethyl)imidazo[1,2-a]pyridin-7-yl}methanol] |  | ≤ 100 nM
30 | CC(C)(C)OC(=O)NCCNC(=O)c1cc(Cl)n2c(CC3CCC(F)(F)CC3)c(C(F)(F)F)nc2c1 [Compound 115, tert-Butyl 2-{5-chloro-3-[(4,4-difluorocyclohexyl)methyl]-2-(trifluoromethyl)imidazo[1,2-a]pyridine-7-carboxamide}ethylcarbamate] | ≤ 100 nM | 
31 | Cc1cc(C(O)c2nc3ccccc3n2C)cc2nc(C(F)(F)F)c(CC3CCC(F)(F)CC3)n12 (centres unmarked) [Compound 120, {3-[(4,4-Difluorocyclohexyl)methyl]-5-methyl-2-(trifluoromethyl)imidazo[1,2-a]pyridin-7-yl}(1-methyl-1H-benzo[d]imidazol-2-yl)methanol] |  | ≤ 100 nM
32 | CCOC(=O)C(C)NC(=O)c1cc(Cl)n2c(CC3CCC(F)(F)CC3)c(C(F)(F)F)nc2c1 (centres unmarked) [Compound 123, Ethyl 2-{5-chloro-3-[(4,4-difluorocyclohexyl)methyl]-2-(trifluoromethyl)imidazo[1,2-a]pyridine-7-carboxamide}propanoate] | ≤ 100 nM | 
